Laboratory results as given in patent US20090215650A1, “SUBSTRATES WITH STABLE SURFACE CHEMISTRY FOR BIOLOGICAL MEMBRANE ARRAYS AND METHOD FOR FABRICATING THEREOF” (priority 2002, published 2009).

Columns and labels:
[1] = target: streptavidin (Streptomyces avidinii, UniProt P22629); experiment: Binding of cy3-streptavidin to biotin-x-DHPE lipid arrays in presence of BSA; details: BSA 0.01%-1%; DPPC/DMPC/2% biotin-x-DHPE arrays on GAPS slide
Protocol: Seven 5×5 arrays of DPPC/DMPC/2% biotin-x-DHPE were printed onto a single Corning GAPS slide (data not shown). After incubation 3 sets of lipid arrays were pre-incubated with TR-BSA before the addition of Cy3-streptavidin. A second set of 3 arrays was incubated with TR-BSA together with cy3-streptavidin, while one array was covered with a solution of cy3-streptavidin. After 30 minutes the slides were rinsed, dried and imaged. The cy5 channel signal was used to monitor the adsorption of TR-BSA, and the cy3 channel signal was used to monitor the binding of cy3-streptavidin.

[2] = target: Neurotensin receptor subtype I (human, NTR1) (Homo sapiens, UniProt P30989); experiment: BT-NT binding to NTR1 arrays on coated glass slides, competition with unlabeled neurotensin; details: 2 nM BT-NT; for binding specificity of BT-NT: competition with 4 μM unlabeled neurotensin
Sequence of Neurotensin receptor subtype I (human, NTR1) (P30989 whole entry): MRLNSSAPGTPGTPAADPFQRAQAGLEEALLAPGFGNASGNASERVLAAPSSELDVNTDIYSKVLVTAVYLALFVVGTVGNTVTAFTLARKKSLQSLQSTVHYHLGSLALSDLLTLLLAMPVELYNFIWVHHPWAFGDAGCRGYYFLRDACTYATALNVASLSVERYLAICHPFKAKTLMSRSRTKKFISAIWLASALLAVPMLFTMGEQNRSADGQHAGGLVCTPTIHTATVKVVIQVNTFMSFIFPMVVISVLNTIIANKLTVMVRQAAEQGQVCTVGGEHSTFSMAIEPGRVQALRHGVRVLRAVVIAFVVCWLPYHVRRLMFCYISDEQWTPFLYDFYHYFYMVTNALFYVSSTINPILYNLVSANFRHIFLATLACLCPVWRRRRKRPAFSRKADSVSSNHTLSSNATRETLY
Protocol: Neurotensin receptor subtype I (human, NTR1) was purchased from Perkin Elmer Life Sciences (Boston, Mass.) and was received as a membrane associated suspension in a buffer. Printing was carried out using a quill-pin printer (Cartesian Technologies Model PS 5000) equipped with software for programmable aspiration and dispensing. After printing the arrays were incubated in a humid chamber at room temperature for one hour, and then used for ligand binding experiments. Two different binding solutions, 2 nM BT-NT in binding buffer in either the absence or presence of neurotensin, were used to examine the total binding of fluorescently labeled neurotensin (2 nM BT-NT), and the specific inhibition of the binding of BT-NT in the presence of 4 μM unlabeled neurotensin. The binding buffer contained 50 mM Tris-HCl, pH 7.4, 10 mM MgCl2, 1 mM EDTA, 0.1% BSA. The incubation time for binding was one hour. After incubation, the slides were rinsed, dried, and examined using a Genipix scanner.
Glass slides were coated by incubating the slide with a 3 ml solution containing 1 mg/ml polymer (poly-lysine, 46 kDa, or polyethyleneimine, 50 kDa) in 0.1×PBS buffer for 30 minutes at room temperature, followed by rinsing with water and drying under nitrogen. […] Using a Telechem quill pin CMP5, we fabricated GPCR arrays.
Neurotensin receptor subtype 1 (human, NTR1) was purchased from Perkin Elmer Life Sciences (Boston, Mass.) and was received as a membrane associated suspension in a buffer. Printing was carried out using a quill-pin printer (Cartesian Technologies Model PS 5000) equipped with software for programmable aspiration and dispensing. After printing the arrays were incubated in a humid chamber at room temperature for one hour, and then used for ligand binding experiments. […] After incubation, the slides were rinsed, dried, and imaged in a fluorescence scanner. […]

[3] = two reactive surfaces (epoxy silane, thiol-silane)

Sequence of streptavidin (P22629 25-183, species assumed): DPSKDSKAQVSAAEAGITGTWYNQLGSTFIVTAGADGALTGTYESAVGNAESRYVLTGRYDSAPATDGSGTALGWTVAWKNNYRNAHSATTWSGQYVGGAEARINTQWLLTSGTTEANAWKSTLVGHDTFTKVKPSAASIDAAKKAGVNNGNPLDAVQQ

bovine serum albumin [BSA] was tested, and the “effect on background level” value [1] was “reduces the background level in most cases” and the “effect on binding specificity of cy3-streptavidin” value [1] was “does not significantly decrease the binding specificity”.

In the case of Bodipy-TMR-neurotensin [BT-NT], the “binding specificity of BT-NT” value ([2]; poly-lysine and polyethyleneimine surfaces (both)) is reported as about 90%, the “binding specificity of BT-NT” value [2, 3] is reported as 75-90% and the total binding signal [2, 3] is reported as “relatively low”.
